Laboratory results as given in patent US8377874.
Like-named read-outs stand apart in the source and are kept apart here.

Settings: rcm bond, Zhan catalyst 1B

Compound CCOC(=O)[C@@]12C[C@H]1/C=C\CCCCC[C@H](NC(=O)OC(C)(C)C)C(=O)N1C[C@H](Oc3nccc4cc(OC)c(Br)cc34)C[C@H]1C(=O)N2 has a ring closure, yield of all isomers (from C=CCCCCC[C@H](NC(=O)OC(C)(C)C)C(=O)N1C[C@H](Oc2nccc3cc(OC)c(Br)cc23)C[C@H]1C(=O)N[C@]1(C(=O)OCC)C[C@H]1C=C, DCM, 10.15 mM, 40.0 °C, 2.0 h) of 70.1%.

For CCOC(=O)[C@@]12C[C@H]1C=CCCCCC[C@@H]1NC(=O)OCC(C)(C)CC=Cc3cc4c(cc(-c5ccccc5)nc4cc3OC)O[C@@H]3C[C@@H](C(=O)N2)N(C3)C1=O, the ring closure, yield of all isomers (from C=CCCCCC[C@H](NC(=O)OCC(C)(C)CC=C)C(=O)N1C[C@H](Oc2cc(-c3ccccc3)nc3cc(OC)c(C=C)cc23)C[C@H]1C(=O)N[C@]1(C(=O)OCC)C[C@H]1C=C, DCM, 5.0 mM, 40.0 °C, 7.0 h) was 49%.

Work on CCOC(=O)[C@@]12C[C@H]1/C=C\CCCCC[C@@H]1NC(=O)OCC(C)(C)CC=Cc3cc4c(nccc4cc3OC)O[C@@H]3C[C@@H](C(=O)N2)N(C3)C1=O yielded a ring closure, yield of all isomers (from C=CCC(C)(C)COC(=O)N[C@H]1CCCCC/C=C\[C@@H]2C[C@@]2(C(=O)OCC)NC(=O)[C@@H]2C[C@@H](Oc3nccc4cc(OC)c(C=C)cc34)CN2C1=O, DCM, 10.2 mM, 40.0 °C, 5.0 h) of 80.8%.

With COc1cc2nc(-c3ccccc3)cc3c2cc1C=CCCCOC(=O)N[C@H]1CCCCCC=C[C@@H]2C[C@@]2(C(=O)NS(=O)(=O)C2CC2)NC(=O)[C@@H]2C[C@H](CN2C1=O)O3 the ring closure, yield of all isomers (from C=CCCCCC[C@H](NC(=O)OCCCC=C)C(=O)N1C[C@H](Oc2cc(-c3ccccc3)nc3cc(OC)c(C=C)cc23)C[C@H]1C(=O)N[C@]1(C(=O)NS(=O)(=O)C2CC2)C[C@H]1C=C, 1,2-dichloroethane, 4.73 mM, 90.0 °C, 3.0 h) was 6.1%.
